The target in the experiment is T1, SBD1 (Lactococcus lactis, UniProt Q9CES5).
T1 construct: gene glnP; His tag cleaved off by TEV; expressed in E. coli MC1061; SEC purified
T1 sequence (Q9CES5 27-251 limits assumed): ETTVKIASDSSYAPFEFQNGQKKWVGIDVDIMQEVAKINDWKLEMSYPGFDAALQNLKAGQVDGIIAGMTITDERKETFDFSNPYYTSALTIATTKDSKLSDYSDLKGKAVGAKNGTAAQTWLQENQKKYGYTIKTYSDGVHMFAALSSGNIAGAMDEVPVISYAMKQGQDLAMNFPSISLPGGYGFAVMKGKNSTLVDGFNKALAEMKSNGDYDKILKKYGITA
The experiment is described as follows: single-molecule nanopore current (SBD1 trapped in ClyA-AS), closed fraction vs ligand, Hill fit n = […]. The following applies: 150 mM NaCl, 15 mM Tris-HCl, pH 7.5, 25 °C, -90 mV, asparagine in trans; read-out: Kd^app. In kind it is binding.

Consider one molecule from article PMC6173770, “Direct electrical quantification of glucose and asparagine from bodily fluids using nanopores” (Nature Communications, 2018).

As to `NC(=O)C[C@H](N)C(=O)O` [asparagine], the Kd stood at 500 ± 40 nM.
